Results reported in PubChem BioAssay AID1745844 (Carcinogenic Potency Database (CPDB), 2022).
Calls of active or inactive are those of the source. How the calls were made is not given here.

System: rodent lifetime carcinogenesis bioassay, tumor incidence TD50
Experiment: carcinogenic potency in animals, long-term in vivo studies, CPDB compilation (AID 1745844)

## COP(=S)(OC)Oc1ccc([N+](=O)[O-])cc1
mouse, strain B6C3F1, females, in feed, site: any site (literature study), lesion: several types, types named in the paper, dosed 102 weeks, study length 102 weeks
  carcinogen call: negative (inactive)
mouse, strain B6C3F1, females, in feed, site: lung, lesion: alveolar/bronchiolar adenoma + alveolar/bronchiolar carcinoma, dosed 102 weeks, study length 102 weeks
  TD50: 125 mg/kg/day
mouse, strain B6C3F1, males, in feed, site: any site (literature study), lesion: several types, types named in the paper, dosed 102 weeks, study length 102 weeks
  carcinogen call: negative (inactive)
mouse, strain B6C3F1, males, in feed, site: lung, lesion: alveolar/bronchiolar adenoma + alveolar/bronchiolar carcinoma, dosed 102 weeks, study length 102 weeks
  TD50: 58.1 mg/kg/day
rat, strain Fischer 344, females, in feed, site: any site (literature study), lesion: several types, types named in the paper, dosed 105 weeks, study length 105 weeks
  carcinogen call: negative (inactive)
rat, strain Fischer 344, males, in feed, site: any site (literature study), lesion: several types, types named in the paper, dosed 105 weeks, study length 105 weeks
  carcinogen call: negative (inactive)

## C=C1CC[C@H](O)C/C1=C/C=C1\CCC[C@]2(C)[C@@H]([C@H](C)CC[C@@H](O)C(C)(C)O)CC[C@@H]12
rat, strain Slc-Wistar, males, in feed, site: adrenal medulla, lesion: pheochromocytoma, dosed 57 weeks, study length 57 weeks
  TD50: 0.803 mg/kg/day
rat, strain Slc-Wistar, males, in feed, site: stomach, glandular, lesion: adenocarcinoma, dosed 57 weeks, study length 57 weeks
  carcinogen call: negative (inactive)

## ClCC(Cl)Cl
mouse, strain B6C3F1, females, by gavage, site: adrenal gland + liver, lesion: pheochromocytoma + hepatocellular carcinoma, dosed 78 weeks, study length 90 weeks
  TD50: 47.6 mg/kg/day
mouse, strain B6C3F1, females, by gavage, site: adrenal gland, lesion: pheochromocytoma, dosed 78 weeks, study length 90 weeks
  TD50: 248 mg/kg/day
mouse, strain B6C3F1, females, by gavage, site: any site (literature study), lesion: several types, types named in the paper, dosed 78 weeks, study length 90 weeks
  TD50: 52.9 mg/kg/day
mouse, strain B6C3F1, females, by gavage, site: liver, lesion: hepatocellular adenoma + hepatocellular carcinoma + neoplastic nodule, dosed 78 weeks, study length 90 weeks
  TD50: 47.6 mg/kg/day
mouse, strain B6C3F1, females, by gavage, site: liver, lesion: hepatocellular carcinoma, dosed 78 weeks, study length 90 weeks
  TD50: 47.6 mg/kg/day
mouse, strain B6C3F1, females, by gavage, site: lung, lesion: alveolar/bronchiolar adenoma + alveolar/bronchiolar carcinoma, dosed 78 weeks, study length 90 weeks
  TD50: 787 mg/kg/day
mouse, strain B6C3F1, males, by gavage, site: adrenal gland + liver, lesion: pheochromocytoma + hepatocellular carcinoma, dosed 78 weeks, study length 90 weeks
  TD50: 65 mg/kg/day
mouse, strain B6C3F1, males, by gavage, site: adrenal gland, lesion: pheochromocytoma, dosed 78 weeks, study length 90 weeks
  TD50: 588 mg/kg/day
mouse, strain B6C3F1, males, by gavage, site: any site (literature study), lesion: several types, types named in the paper, dosed 78 weeks, study length 90 weeks
  TD50: 79.5 mg/kg/day
mouse, strain B6C3F1, males, by gavage, site: liver, lesion: hepatocellular adenoma + hepatocellular carcinoma + neoplastic nodule, dosed 78 weeks, study length 90 weeks
  TD50: 65 mg/kg/day
mouse, strain B6C3F1, males, by gavage, site: liver, lesion: hepatocellular carcinoma, dosed 78 weeks, study length 90 weeks
  TD50: 65 mg/kg/day
mouse, strain B6C3F1, males, by gavage, site: lung, lesion: alveolar/bronchiolar adenoma + alveolar/bronchiolar carcinoma, dosed 78 weeks, study length 90 weeks
  TD50: 1560 mg/kg/day
rat, strain Osborne-Mendel, females, by gavage, site: any site (literature study), lesion: several types, types named in the paper, dosed 78 weeks, study length 112 weeks
  carcinogen call: negative (inactive)
rat, strain Osborne-Mendel, females, by gavage, site: liver, lesion: hepatocellular adenoma + hepatocellular carcinoma + neoplastic nodule, dosed 78 weeks, study length 112 weeks
  TD50: 771 mg/kg/day
rat, strain Osborne-Mendel, males, by gavage, site: any site (literature study), lesion: several types, types named in the paper, dosed 78 weeks, study length 112 weeks
  carcinogen call: negative (inactive)

## C[C@@H]1O[C@@]2(CS1)CN1CCC2CC1
rat, strain F344/DuCrj, females, by gavage, site: liver, lesion: one or several types, types not named, dosed 52 weeks, study length 52 weeks
  carcinogen call: negative (inactive)
rat, strain F344/DuCrj, males, by gavage, site: liver, lesion: one or several types, types not named, dosed 52 weeks, study length 52 weeks
  carcinogen call: negative (inactive)

## ClC/C=C/CCl
mouse, strain Ha/ICR, females, i.p., site: abdomen, lesion: sarcoma, dosed 76 weeks, study length 76 weeks
  TD50: 1.52 mg/kg/day

## C1CCNCC1
rat, strain MRC, females, in drinking water, site: any site (literature study), lesion: several types, types named in the paper, dosed 75 weeks, study length 104 weeks
  TD50: 63.3 mg/kg/day

## C/C=C/C=C/C=O
mouse, strain B6C3F1, females, by gavage, site: forestomach, lesion: squamous-cell carcinoma + squamous-cell papilloma, dosed 104 weeks, study length 104 weeks
  TD50: 129 mg/kg/day
mouse, strain B6C3F1, females, by gavage, site: forestomach, lesion: squamous-cell carcinoma, dosed 104 weeks, study length 104 weeks
  TD50: 580 mg/kg/day
mouse, strain B6C3F1, females, by gavage, site: forestomach, lesion: squamous-cell papilloma, dosed 104 weeks, study length 104 weeks
  TD50: 165 mg/kg/day
mouse, strain B6C3F1, females, by gavage, site: skin, lesion: fibrosarcoma + fibrous histiocytoma, dosed 104 weeks, study length 104 weeks
  TD50: 218 mg/kg/day
mouse, strain B6C3F1, males, by gavage, site: any site (literature study), lesion: several types, types named in the paper, dosed 104 weeks, study length 104 weeks
  TD50: 279 mg/kg/day
mouse, strain B6C3F1, males, by gavage, site: forestomach, lesion: squamous-cell carcinoma + squamous-cell papilloma, dosed 104 weeks, study length 104 weeks
  TD50: 279 mg/kg/day
mouse, strain B6C3F1, males, by gavage, site: forestomach, lesion: squamous-cell papilloma, dosed 104 weeks, study length 104 weeks
  TD50: 354 mg/kg/day
mouse, strain B6C3F1, males, by gavage, site: liver, lesion: hepatocellular adenoma + hepatoblastoma + hepatocellular carcinoma, dosed 104 weeks, study length 104 weeks
  TD50: 211 mg/kg/day
mouse, strain B6C3F1, males, by gavage, site: lung, lesion: alveolar/bronchiolar adenoma + alveolar/bronchiolar carcinoma, dosed 104 weeks, study length 104 weeks
  TD50: 1980 mg/kg/day
mouse, strain B6C3F1, males, by gavage, site: tongue, lesion: squamous-cell carcinoma, dosed 104 weeks, study length 104 weeks
  TD50: 2080 mg/kg/day
rat, strain Fischer 344, females, by gavage, site: any site (literature study), lesion: several types, types named in the paper, dosed 104 weeks, study length 104 weeks
  TD50: 112 mg/kg/day
rat, strain Fischer 344, females, by gavage, site: forestomach, lesion: squamous-cell papilloma, dosed 104 weeks, study length 104 weeks
  TD50: 102 mg/kg/day
rat, strain Fischer 344, males, by gavage, site: adrenal medulla, lesion: pheochromocytoma, malignant, dosed 104 weeks, study length 104 weeks
  TD50: 415 mg/kg/day
rat, strain Fischer 344, males, by gavage, site: any site (literature study), lesion: several types, types named in the paper, dosed 104 weeks, study length 104 weeks
  TD50: 107 mg/kg/day
rat, strain Fischer 344, males, by gavage, site: forestomach, lesion: squamous-cell carcinoma + squamous-cell papilloma, dosed 104 weeks, study length 104 weeks
  TD50: 44.7 mg/kg/day
rat, strain Fischer 344, males, by gavage, site: forestomach, lesion: squamous-cell papilloma, dosed 104 weeks, study length 104 weeks
  TD50: 46.1 mg/kg/day
